Laboratory results taken from publication PMC11591356, “Immunomodulatory Effects of the Tobacco Defensin NaD1” (Antibiotics, 2024).
Values joined by “and” are separate entries in the source; they are usually repeats but may differ in a detail not shown here. Identical values can stand only once. Ends that are not written are not given here.

How the values were obtained:
[1] = system: umbilical vein endothelial cells (HUVEC); set-up: method as in PMID 28179997; settings: read-out: IC50, MTT cell viability assay; cited from earlier work
PBMCs = assay: Cytotoxicity assay, resazurin method, PBMCs; assay type: cell-based, human; settings: for Cell viability: PBMCs, 24 h, resazurin
Source text: Peripheral blood mononuclear cells (PBMCs) from healthy donors were purchased from American Type Culture Collection (ATCC PCS-800-011). Primary monocytes were isolated from PBMCs by adherence to the plastic surface. For that, PBMCs were thawed, resuspended in RPMI-1640 culture medium (Corning, Corning, NY, USA) without serum at a concentration of 2 × 10^6 cells/mL, seeded into the wells of a 24-well plate and placed in a humidified CO2-intubator (CellXpert C170i, Eppendorf, Hamburg, Germany) for 1 h. After that, non-adherent cells were removed from the wells and attached monocytes were thoroughly washed with PBS and cultured in a CO2-intubator in complete RPMI-1640 containing 10% human serum (HS Type AB, Capricorn Scientific, Ebsdorfergrund, Germany) and 1×antibiotic-antimycotic (1×AA) solution (Sigma, St. Louis, MO, USA).
(§1) The cytotoxic effects of the tobacco defensin NaD1 towards PBMCs or Caco-2 cells were investigated in 96-well plates using the resazurin method as previously described. In brief, 4 × 10^5 per well Caco-2 cells not in a monolayer as well as Caco-2 cells in a monolayer in DMEM/F12 (1:1) medium with 10% FBS or 2 × 10^6 PBMCs per well in RPMI-1640 also with 10% FBS were incubated with serial dilutions of NaD1 at final concentrations from 0.39 to 50 μM or from 2.1 to 180 μM for 24 h. After that, resazurin (Sigma, St. Louis, MO, USA) was added at a final concentration of 70 µM and the plates were incubated overnight (16–18 h). Untreated cells and cells treated by non-ionogenic detergent Triton X-100 were used as negative and positive controls, respectively. […] The cell viability was estimated by resorufin fluorescence registered at […] via the following equation: cell viability (%) = (Fsample/Fcontrol) × 100%. Experiment was carried out twice in duplicate.

[2] = system: Caco-2 cells in a monolayer; assay: Cytotoxicity assay, resazurin method, Caco-2 cells in a monolayer; assay type: cell-based, human; settings: 24 h; for Cell viability: Caco-2 monolayer
Procedure: as §1

[3] = system: immature monocyte-derived dendritic cells (moDC); assay: Multiplex xMAP assessment of cytokine production by immature monocyte-derived dendritic cells; assay type: cell-based, human
Procedure: Immature monocyte-derived dendritic cells (moDC) were obtained from primary monocytes by a differentiation protocol involving a cytokine cocktail with IL-4 and GM-CSF [38]. For this, the monocytes were cultured in complete RPMI-1640 containing 10% HS, 1×AA solution, 500 U/mL rhIL-4 (Sci-Store, Moscow, Russia) and 800 U/mL rhGM-CSF (Sci-Store) for 3 days. Then, the cells were re-fed with the fresh medium with rhIL-4 and rhGM-CSF and cultured for 4 more days.
For the study of the immunomodulatory properties of NaD1, monocytes and immature dendritic cells (moDC) were seeded into the wells of a 24-well plate at densities of 4 × 10^5 and 1.3 × 10^5 cells per well, respectively, in complete RPMI-1640 with 10% HS and AA solution. Then, 24 h later, the culture medium was replaced by a fresh one either with 2 μM NaD1 for stimulation of the cells or without if for the control wells. The cultures were kept in a humidified CO2-intubator for 24 h and then the samples of the culture media were taken and frozen.
The absolute levels of 48 cytokines, chemokines and growth factors were determined at a protein level by multiplex xMAP technology (Luminex, Austin, TX, USA). For this, a MILLIPLEX Human Panel A kit (HCYTA-60K-PX48, Merck, Darmstadt, Germany) was used and the following 48 analytes were evaluated in two biological replications: sCD40L, EGF, CCL11/Eotaxin-1, FGF-basic/FGF-2, Flt-3 ligand, CX3CL1/Fractalkine, G-CSF, GM-CSF, GROα, IFNα2, IFN-γ, IL-1α, IL-1β, IL-1RA, IL-2, IL-3, IL-4, IL-5, IL-6, IL-7, CXCL8/IL-8, IL-9, IL-10, IL-12(p40), IL-12(p70), IL-13, IL-15, IL-17A/CTLA8, IL-17E/IL-25, IL-17F, IL-18, IL-22, IL-27, CXCL10/IP-10, CCL2/MCP-1, CCL7/MCP-3, M-CSF, CCL22/MDC, CXCL9/MIG, CCL3/MIP-1α, CCL4/MIP-1β, PDGF-AA, PDGF-AB/BB, CCL5/RANTES, TGF-α, TNF-α, TNF-β and VEGF-A. The fluorescent data were obtained on a MAGPIX system (Merck) operated with xPONENT 4.2 software (Merck). Final analysis was performed in MILLIPLEX Analyst v5.1 software (Merck).

[4] = system: human dermal fibroblast cells (AHDF); set-up: method as in PMID 28179997; settings: read-out: IC50, MTT cell viability assay; cited from earlier work

## NaD1: Recombinant tobacco floral defensin NaD1 (UNIPROT Q8GTM0), obtained by heterologous expression in E. coli; FITC-labeled in the permeability assay (RECKTESNTFPGICITKPPCRKACISEKFTDGHCSKILRRCLCTKPC; cysteine pairing not given here; also: FITC label; UniProt Q8GTM0 26-72, looked up)
[1]
  IC50: ~10 µM
PBMCs; peptide 50 µM, twice in duplicate
  Cell viability: approximately 90%
PBMCs; peptide 180 μM
  Cell viability: more than 50%
PBMCs; peptide 12.5 µM, PBMCs and Caco-2
  Cytotoxic effect against the tested immune and epithelial cells: did not exhibit a cytotoxic effect
[2]; peptide 25 µM
  Cell viability: approximately 85%
[2]; peptide 50 µM
  Cell viability: ~70%
[2]; peptide 12.5 µM
  Cytotoxic effect on Caco-2 cells in a monolayer: no effects
[3]; immature moDCs + 2 μM NaD1, 24 h, two biological replications, untreated control 116.89
  sCD40L absolute level: 92.12 pg/mL
[3]; moDCs + 2 μM NaD1, 24 h, control 0.51
  IL-2 absolute level: <0.35↓ pg/ml
[3]; moDCs + 2 μM NaD1, 24 h, control 0.81
  IFNg absolute level: <0.61↓ pg/ml
[3]; moDCs + 2 μM NaD1, 24 h, control 1.17
  IL-18 absolute level: 0.78 pg/mL
[3]; moDCs + 2 μM NaD1, 24 h, control 1.76
  IL-10 absolute level: <1.29↓ pg/ml
[3]; moDCs + 2 μM NaD1, 24 h, control 1.92
  IL-6 absolute level: 0.85 pg/mL
[3]; moDCs + 2 μM NaD1, 24 h, control 2.31
  IL-9 absolute level: 0.83 pg/mL
[3]; moDCs + 2 μM NaD1, 24 h, control 2.51
  IP-10 absolute level: 2.51 pg/mL
[3]; moDCs + 2 μM NaD1, 24 h, control 3.8
  GM-CSF absolute level: 2.87 pg/mL
[3]; moDCs + 2 μM NaD1, 24 h, control 4.21
  IL-4 absolute level: 4.38 pg/mL
[3]; moDCs + 2 μM NaD1, 24 h, control 5.3
  GROa absolute level: 2.88 pg/mL
[3]; moDCs + 2 μM NaD1, 24 h, control 5.38
  EGF absolute level: 3.12 pg/mL
[3]; moDCs + 2 μM NaD1, 24 h, control 6.04
  TGF-a absolute level: 4.68 pg/mL
[3]; moDCs + 2 μM NaD1, 24 h, control 6.14
  IL-12 (p40) absolute level: <2.07↓ pg/ml
[3]; moDCs + 2 μM NaD1, 24 h, control 6.59
  G-CSF absolute level: 6.59 pg/mL
[3]; moDCs + 2 μM NaD1, 24 h, control 10.99
  IL-13 absolute level: <2.24↓ pg/ml
[3]; moDCs + 2 μM NaD1, 24 h, control 12.11
  IL-1b absolute level: 5.8 pg/mL
[3]; moDCs + 2 μM NaD1, 24 h, control 12.13
  IL-1a absolute level: 15.76 pg/mL
[3]; moDCs + 2 μM NaD1, 24 h, control 13.22
  IFNa2 absolute level: 7.1 pg/mL
[3]; moDCs + 2 μM NaD1, 24 h, control 14.68
  PDGF-AA absolute level: 12.15 pg/mL
[3]; moDCs + 2 μM NaD1, 24 h, control 26.94
  Fractalkine absolute level: 20.9 pg/mL
[3]; moDCs + 2 μM NaD1, 24 h, control 45.9
  TNFa absolute level: 30.64 pg/mL
[3]; moDCs + 2 μM NaD1, 24 h, control 62.22
  MCP-3 absolute level: 44.12 pg/mL
[3]; moDCs + 2 μM NaD1, 24 h, control 62.72
  MIP-1a absolute level: 35.36 pg/mL
[3]; moDCs + 2 μM NaD1, 24 h, control 76.28
  MIG absolute level: 16.72 pg/mL
[3]; moDCs + 2 μM NaD1, 24 h, control 78.9
  FGF-2 absolute level: 71.22 pg/mL
[3]; moDCs + 2 μM NaD1, 24 h, control 80.06
  IL-27 absolute level: 68.79 pg/mL
[3]; moDCs + 2 μM NaD1, 24 h, control 101.68
  M-GSF absolute level: 45.07 pg/mL
[3]; moDCs + 2 μM NaD1, 24 h, control 199.63
  IL-1RA absolute level: 133 pg/mL and 133.58 pg/mL
[3]; moDCs + 2 μM NaD1, 24 h, control 204.09
  MIP-1b absolute level: 120 pg/mL and 120.19 pg/mL
[3]; moDCs + 2 μM NaD1, 24 h, control 514.13
  MCP-1 absolute level: 288 pg/mL and 288.04 pg/mL
[3]; moDCs + 2 μM NaD1, 24 h, control 1484
  MDC absolute level: 1278 pg/mL
[3]; moDCs + 2 μM NaD1, 24 h, control 1856
  IL-8 absolute level: 1037 pg/mL
[3]; moDCs + 2 μM NaD1, 24 h, control <0.32
  IL-7 absolute level: <0.32↓ pg/ml
[3]; moDCs + 2 μM NaD1, 24 h, control <0.33
  IL-5 absolute level: <0.33↓ pg/ml
[3]; moDCs + 2 μM NaD1, 24 h, control <0.61
  FLT-3L absolute level: <0.61↓ pg/ml
[3]; moDCs + 2 μM NaD1, 24 h, control <0.73
  RANTES absolute level: <0.73↓ pg/ml
[3]; moDCs + 2 μM NaD1, 24 h, control <0.77
  IL-3 absolute level: <0.77↓ pg/ml
[3]; moDCs + 2 μM NaD1, 24 h, control <0.78
  TNFb absolute level: <0.78↓ pg/ml
[3]; moDCs + 2 μM NaD1, 24 h, control <1.00
  IL-17A absolute level: <1.00↓ pg/ml
[3]; moDCs + 2 μM NaD1, 24 h, control <1.44
  VEGFa absolute level: <1.44↓ pg/ml
[3]; moDCs + 2 μM NaD1, 24 h, control <1.79
  IL-12 (p70) absolute level: <1.79↓ pg/ml
[3]; moDCs + 2 μM NaD1, 24 h, control <1.84
  IL-15 absolute level: <1.84↓ pg/ml
[3]; moDCs + 2 μM NaD1, 24 h, control <3.80
  Eotaxin absolute level: <3.80↓ pg/ml
[3]; moDCs + 2 μM NaD1, 24 h, control <5.75
  PDGF-AB/BB absolute level: <5.75↓ pg/ml
[3]; moDCs + 2 μM NaD1, 24 h, control <9.00
  IL-22 absolute level: <9.00↓ pg/ml
[3]; moDCs + 2 μM NaD1, 24 h, control <16.98
  IL-17F absolute level: <16.98↓ pg/ml
[3]; moDCs + 2 μM NaD1, 24 h, control <25.82
  IL-17E/IL-25 absolute level: <25.82↓ pg/ml
[4]
  IC50: ~10 µM
